# Source: patent US20240018125A1, “CYCLIC ISOTHIOUREA DERIVATIVES AS CXCR4 MODULATORS” (ERMIUM THERAPEUTICS, priority 2020, published 2024)
# Structures can show the parent of a compound that is named as a salt.
row,Compound,melting point [°C]
1,"c1ccc(CC2CN=C(SCCN3CCCCCC3)N2)cc1 (stereo not shown) (as salt: hydrochloride) [Example 58, 1-(2-((5-benzyl-4,5-dihydro-1H-imidazol-2-yl)thio)ethyl)azepane dihydrochloride]",65 to 85
2,"C1=C(CSC2=NCc3ccccc3N2)N2CC(Cc3cccs3)N=C2S1 (stereo not shown) (as salt: hydrochloride) [Example 63, 3-(((3,4-dihydroquinazolin-2-yl)thio)methyl)-6-(thiophen-2-ylmethyl)-5,6-dihydroimidazo[2,1-b]thiazole dihydrochloride]",215 to 220
3,"C1=C(CSC2=NCc3ccccc3N2)N2CC(Cc3ccccc3)N=C2S1 (stereo not shown) (as salt: hydrochloride) [Example 65, 6-benzyl-3-(((3,4-dihydroquinazolin-2-yl)thio)methyl)-5,6-dihydroimidazo[2,1-b]thiazole dihydrochloride]",142 to 148
4,"c1ccc2c(c1)CN(CCSC1=NCc3ccccc3N1)C2 (as salt: hydrochloride) [Example 71, 2-((2-(isoindolin-2-yl)ethyl)thio)-3,4-dihydroquinazoline dihydrochloride]",134 to 138
5,"CC1(C)N=C(SCC2=CSC3=Nc4cccc(F)c4CN23)Nc2ccccc21 (as salt: hydrochloride) [Example 73, 3-(((4,4-dimethyl-1,4-dihydroquinazolin-2-yl)thio)methyl)-6-fluoro-5H-thiazolo[2,3-b]quinazoline dihydrochloride]",190 to 194
6,"c1ccc2c(c1)CN=C(SCCN1CCCC1)N2 (as salt: hydrochloride) [Example 77, 2-((2-(pyrrolidin-1-yl)ethyl)thio)-1,4-dihydroquinazoline dihydrochloride]",195 to 203
7,"Fc1ccc2c(c1)N=C1SC=C(CSC3=NCc4ccccc4N3)N1C2 (as salt: hydrochloride) [Example 82, 3-(((1,4-dihydroquinazolin-2-yl)thio)methyl)-8-fluoro-5H-thiazolo[2,3-b]quinazoline dihydrochloride]",> 250
8,"Fc1ccc2c(c1)CN1C(CSC3=NCc4ccccc4N3)=CSC1=N2 (as salt: hydrochloride) [Example 84, 3-(((1,4-dihydroquinazolin-2-yl)thio)methyl)-7-fluoro-5H-thiazolo[2,3-b]quinazoline dihydrochloride]",> 250
9,"CC1(C)N=C(SCC2=CSC3=NC(Cc4ccccc4)CN23)Nc2ccccc21 (stereo not shown) (as salt: hydrochloride) [Example 87, 6-benzyl-3-(((4,4-dimethyl-1,4-dihydroquinazolin-2-yl)thio)methyl)-5,6-dihydroimidazo[2,1-b]thiazole dihydrochloride]",50 to 52
10,"C1=C(CSC2=NCCc3ccccc3N2)N2CC(Cc3ccccc3)N=C2S1 (stereo not shown) (as salt: hydrochloride) [Example 88, 6-benzyl-3-(((4,5-dihydro-1H-benzo[d][1,3]diazepin-2-yl)thio)methyl)-5,6-dihydroimidazo[2,1-b]thiazole dihydrochloride]",50 to 53
11,"Fc1ccc2c(c1)NC(SCC1=CSC3=NC(Cc4ccccc4)CN13)=NC2 (stereo not shown) (as salt: hydrochloride) [Example 89, 6-benzyl-3-(((7-fluoro-1,4-dihydroquinazolin-2-yl)thio)methyl)-5,6-dihydroimidazo[2,1-b]thiazole dihydrochloride]",125 to 130
12,"CCCCN1Cc2ccccc2N=C1SCC1=CSC2=NC(Cc3ccccc3)CN12 (stereo not shown) (as salt: hydrochloride) [Example 93, 6-benzyl-3-(((3-butyl-3,4-dihydroquinazolin-2-yl)thio)methyl)-5,6-dihydroimidazo[2,1-b]thiazole dihydrochloride]",40 to 44
13,"CC1(C)c2ccccc2N=C2SC=C(CSC3=NCc4ccccc4N3)N21 (as salt: hydrochloride) [Example 95, 3-(((1,4-dihydroquinazolin-2-yl)thio)methyl)-5,5-dimethyl-5H-thiazolo[2,3-b]quinazoline dihydrochloride]",180 to 185
14,"CCCCN1C(SCC2=CSC3=NC(Cc4ccccc4)CN23)=NCc2ccccc21 (stereo not shown) (as salt: hydrochloride) [Example 99, 6-benzyl-3-(((1-butyl-1,4-dihydroquinazolin-2-yl)thio)methyl)-5,6-dihydroimidazo[2,1-b]thiazole dihydrochloride]",50 to 58
15,"C1=C(CSC2=NCc3ccccc3N2)N2C[C@H](Cc3c[nH]c4ccccc34)N=C2S1 (as salt: hydrochloride) [Example 109, (S)-6-((1H-indol-3-yl)methyl)-3-(((1,4-dihydroquinazolin-2-yl)thio)methyl)-5,6-dihydroimidazo[2,1-b]thiazole dihydrochloride]",180 to 190
16,"IC1=C(CSC2=NCc3ccccc3N2)N2CC(Cc3ccccc3)N=C2S1 (stereo not shown) (as salt: hydrochloride) [Example 110, 6-benzyl-3-(((1,4-dihydroquinazolin-2-yl)thio)methyl)-2-iodo-5,6-dihydroimidazo[2,1-b]thiazole dihydrochloride]",177 to 182
17,"Cc1cccc(CC2CN3C(CSC4=NCc5ccccc5N4)=CSC3=N2)c1 (stereo not shown) (as salt: hydrochloride) [Example 112, 3-(((1,4-dihydroquinazolin-2-yl)thio)methyl)-6-(3-methylbenzyl)-5,6-dihydroimidazo[2,1-b]thiazole dihydrochloride]",136 to 145
18,"CC1N=C(SCC2=CSC3=NC(Cc4ccccc4)CN23)Nc2ccccc21 (stereo not shown) (as salt: hydrochloride) [Example 113, 6-benzyl-3-(((4-methyl-1,4-dihydroquinazolin-2-yl)thio)methyl)-5,6-dihydroimidazo[2,1-b]thiazole dihydrochloride]",80 to 88
19,"Fc1cccc2c1CN=C(SCC1=CSC3=NC(Cc4ccccc4)CN13)N2 (stereo not shown) (as salt: hydrochloride) [Example 117, 6-benzyl-3-(((5-fluoro-1,4-dihydroquinazolin-2-yl)thio)methyl)-5,6-dihydroimidazo[2,1-b]thiazole dihydrochloride]",147 to 151
20,"C1=C(CSC2=NCc3ccccc3N2)N2CC(c3ccccc3)N=C2S1 (stereo not shown) (as salt: hydrochloride) [Example 120, 3-(((1,4-dihydroquinazolin-2-yl)thio)methyl)-6-phenyl-5,6-dihydroimidazo[2,1-b]thiazole dihydrochloride]",185 to 190
21,"Cc1ccc(CC2CN3C(CSC4=NCc5ccccc5N4)=CSC3=N2)cc1 (stereo not shown) (as salt: hydrochloride) [Example 122, 3-(((1,4-dihydroquinazolin-2-yl)thio)methyl)-6-(4-methylbenzyl)-5,6-dihydroimidazo[2,1-b]thiazole dihydrochloride]",158 to 170
22,"COc1ccc(C[C@@H]2CN3C(CSC4=NCc5ccccc5N4)=CSC3=N2)cc1 (as salt: hydrochloride) [Example 124, (R)-3-(((1,4-dihydroquinazolin-2-yl)thio)methyl)-6-(4-methoxybenzyl)-5,6-dihydroimidazo[2,1-b]thiazole dihydrochloride]",150 to 164
